The numbers were not newly measured in patent publication US4867987A, “Pharmaceutical product for the sustained release of ibuprofen” (priority 1986, dated 1989), which cites them from elsewhere.

On to `CC(C)Cc1ccc(C(C)C(=O)O)cc1` (stereo not shown) [ibuprofen, 2-(4-isobutylphenyl)propionic acid], for which the “complete elimination of ibuprofen and its metabolites after the last administration” value is no more than 24 h.
